Measured values: patent publication US20240092835A1, “NOVEL PEPTIDES CAPABLE OF ALTERING NK CELL ACTIVITY” (Massachusetts Institute of Technology, priority 2022, published 2024)
Where no end group is shown, it is not given here.

What was measured:
NKG2A−/NKG2C− NK cells = experiment: NK cell activation markers in control NKG2A-/NKG2C- NK cells incubated with peptide and K562 expressing HLA-E; format: cell-based, human
Method in brief: (§1)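 HLA-E-expressing K562 cells incubated with peptides from human or human cytomegalovirus proteomes, then with NK cell subsets sorted by NKG2A/NKG2C status. Read-out is percent of cells positive for surface markers; a rise indicates activation, a fall inhibition.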

HLA-E = target: T1, HLA-E (Homo sapiens, UniProt P13747); experiment: HLA-E surface stabilization assay with RMA-S/HLA-E cells; format: cell-based; conditions: 30 μM peptide, 16 hours; for HLA-E surface expression stability (GeoMFI): anti-HLA-E antibody
T1 construct: expressed in transfected cells; host or cells: RMA-S/HLA-E cells (antigen processing-defective lymphoma cell line)
T1 sequence (P13747 22-358): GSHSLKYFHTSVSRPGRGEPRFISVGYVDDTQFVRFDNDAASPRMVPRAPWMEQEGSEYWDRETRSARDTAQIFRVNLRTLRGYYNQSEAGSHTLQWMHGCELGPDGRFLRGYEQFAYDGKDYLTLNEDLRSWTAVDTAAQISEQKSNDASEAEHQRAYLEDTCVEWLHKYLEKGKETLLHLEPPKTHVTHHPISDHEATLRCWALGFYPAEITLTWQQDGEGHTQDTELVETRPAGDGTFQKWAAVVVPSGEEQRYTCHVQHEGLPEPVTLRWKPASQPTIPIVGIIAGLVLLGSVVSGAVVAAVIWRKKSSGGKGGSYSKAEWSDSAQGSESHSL
T1 sequence (P61769 21-119 partner): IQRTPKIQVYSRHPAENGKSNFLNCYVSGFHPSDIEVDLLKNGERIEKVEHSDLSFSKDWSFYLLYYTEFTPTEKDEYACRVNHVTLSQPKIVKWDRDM
Protocol: HLA-E surface expression was assessed by measuring geometric mean fluorescence intensity (GeoMFI) in RMA-S cells following immunofluorescence staining with an anti-HLA-E antibody (Table 14). Increased GeoMFI was indicative of increased HLA-E surface expression stability following novel peptide exposures (FIG. 3).

NKG2A−/NKG2C+ NK cells = experiment: NK cell activation markers in NKG2A-/NKG2C+ NK cells incubated with peptide and K562 expressing HLA-E (activation); format: cell-based, human; conditions: for effect on NKG2A−/NKG2C+ NK cell activation (in words): K562 expressing HLA-E, CD107a, IFNG, TNF, CCL3; for percentage of CCL3+ NK cells / percentage of CD107+ NK cells / percentage of IFNG+ NK cells / percentage of TNF+ NK cells: NKG2A-/NKG2C+ NK cells, K562/HLA-E
Method in brief: as §1

CD94/NKG2C = CD94/NKG2C (Homo sapiens, UniProt P26717+Q13241); experiment: Steady-state surface plasmon resonance of peptide-HLA-E complex with CD94/NKG2C; format: binding; conditions: for Binding of peptide-HLA-E complexes to CD94/NKG2C normalized to a theoretical Rmax: steady-state SPR
Sequence of CD94/NKG2C (P26717 94-231 limits assumed): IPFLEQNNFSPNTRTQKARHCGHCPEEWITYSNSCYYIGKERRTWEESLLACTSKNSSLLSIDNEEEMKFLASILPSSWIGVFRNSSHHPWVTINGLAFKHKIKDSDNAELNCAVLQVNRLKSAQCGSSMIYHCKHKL
Sequence of CD94/NKG2C (Q13241 32-179 limits assumed): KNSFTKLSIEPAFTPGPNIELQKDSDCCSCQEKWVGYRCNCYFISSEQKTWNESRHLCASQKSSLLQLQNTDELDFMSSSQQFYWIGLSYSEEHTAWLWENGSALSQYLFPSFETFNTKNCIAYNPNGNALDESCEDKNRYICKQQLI

CD94/NKG2A = CD94/NKG2A (Homo sapiens, UniProt P26715+Q13241); experiment: Steady-state surface plasmon resonance of peptide-HLA-E complex with CD94/NKG2A; format: binding; conditions: for Binding of peptide-HLA-E complexes to CD94/NKG2A normalized to a theoretical Rmax: steady-state SPR
Sequence of CD94/NKG2A (P26715 94-233 limits assumed): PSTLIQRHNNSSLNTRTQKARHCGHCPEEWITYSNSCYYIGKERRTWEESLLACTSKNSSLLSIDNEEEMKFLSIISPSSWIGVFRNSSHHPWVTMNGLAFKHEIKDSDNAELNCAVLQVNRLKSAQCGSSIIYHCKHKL
Sequence of CD94/NKG2A (Q13241 32-179 limits assumed): as the sequence (Q13241 32-179 limits assumed) above

## TAPARTMFL [human13, TAPARTMFL]
NKG2A−/NKG2C− NK cells; Trial 1
  percentage CCL3+ NK cells: 37.2%
  percentage CD107+ NK cells: 26.3%
  percentage TNF+ NK cells: 3.65%
  percentage of IFNG+ NK cells: 16.6%
NKG2A−/NKG2C− NK cells; Trial 2
  percentage CCL3+ NK cells: 65.4%
  percentage CD107+ NK cells: 43%
  percentage TNF+ NK cells: 11.9%
  percentage of IFNG+ NK cells: 32.5%
NKG2A−/NKG2C− NK cells; Trial 3
  percentage CCL3+ NK cells: 56.2%
  percentage CD107+ NK cells: 56.4%
  percentage TNF+ NK cells: 23.2%
  percentage of IFNG+ NK cells: 49.4%
NKG2A−/NKG2C− NK cells; Trial 4
  percentage CCL3+ NK cells: 37.7%
  percentage CD107+ NK cells: 31.8%
  percentage TNF+ NK cells: 12.1%
  percentage of IFNG+ NK cells: 22.2%
NKG2A−/NKG2C− NK cells; Trial 5
  percentage CCL3+ NK cells: 30.1%
  percentage CD107+ NK cells: 22.7%
  percentage TNF+ NK cells: 8.01%
  percentage of IFNG+ NK cells: 18.9%
NKG2A−/NKG2C− NK cells; Trial 6
  percentage CCL3+ NK cells: 27.4%
  percentage CD107+ NK cells: 21.1%
  percentage TNF+ NK cells: 3.64%
  percentage of IFNG+ NK cells: 8.06%
HLA-E
  HLA-E surface expression stabilization strength (in words): lower
HLA-E; Trial 1
  HLA-E surface expression stability (GeoMFI): 851 GeoMFI
HLA-E; Trial 2
  HLA-E surface expression stability (GeoMFI): 887 GeoMFI
HLA-E; Trial 3
  HLA-E surface expression stability (GeoMFI): 673 GeoMFI
HLA-E; Trial 4
  HLA-E surface expression stability (GeoMFI): 1187 GeoMFI
HLA-E; approximate value
  HLA-E surface expression stabilization strength, approximate GeoMFI: approximately 1×10^3 GeoMFI
NKG2A−/NKG2C+ NK cells; listed as SEQ ID NO. 5
  effect on NKG2A−/NKG2C+ NK cell activation (in words): activate
NKG2A−/NKG2C+ NK cells; listed as h13
  effect on NKG2A−/NKG2C+ NK cell activation (in words): activated
NKG2A−/NKG2C+ NK cells; Trial 1
  percentage of CCL3+ NK cells: 56.9%
  percentage of CD107+ NK cells: 38.3%
  percentage of IFNG+ NK cells: 18.2%
  percentage of TNF+ NK cells: 9.29%
NKG2A−/NKG2C+ NK cells; Trial 2
  percentage of CCL3+ NK cells: 74.9%
  percentage of CD107+ NK cells: 57%
  percentage of IFNG+ NK cells: 28.7%
  percentage of TNF+ NK cells: 20.7%
NKG2A−/NKG2C+ NK cells; Trial 3
  percentage of CCL3+ NK cells: 72.4%
  percentage of CD107+ NK cells: 71.2%
  percentage of IFNG+ NK cells: 49.2%
  percentage of TNF+ NK cells: 37.9%
NKG2A−/NKG2C+ NK cells; Trial 4
  percentage of CCL3+ NK cells: 60.7%
  percentage of CD107+ NK cells: 57.1%
  percentage of IFNG+ NK cells: 40.8%
  percentage of TNF+ NK cells: 33%
NKG2A−/NKG2C+ NK cells; Trial 5
  percentage of CCL3+ NK cells: 61.9%
  percentage of CD107+ NK cells: 56.2%
  percentage of IFNG+ NK cells: 34.2%
  percentage of TNF+ NK cells: 27.4%
NKG2A−/NKG2C+ NK cells; Trial 6
  percentage of CCL3+ NK cells: 40.7%
  percentage of CD107+ NK cells: 29.1%
  percentage of IFNG+ NK cells: 14.3%
  percentage of TNF+ NK cells: 8.92%
CD94/NKG2C; CD94/NKG2C concentration 0 μM
  binding of peptide-HLA-E complex to CD94/NKG2C normalized to a fitted Rmax: 0.007
CD94/NKG2C; CD94/NKG2C concentration 0.1 μM
  binding of peptide-HLA-E complex to CD94/NKG2C normalized to a fitted Rmax: 0.017
CD94/NKG2C; CD94/NKG2C concentration 0.2 μM
  binding of peptide-HLA-E complex to CD94/NKG2C normalized to a fitted Rmax: 0.023
CD94/NKG2C; CD94/NKG2C concentration 0.4 μM
  binding of peptide-HLA-E complex to CD94/NKG2C normalized to a fitted Rmax: 0.040
CD94/NKG2C; CD94/NKG2C concentration 0.8 μM
  binding of peptide-HLA-E complex to CD94/NKG2C normalized to a fitted Rmax: 0.067
CD94/NKG2C; CD94/NKG2C concentration 1.6 μM
  binding of peptide-HLA-E complex to CD94/NKG2C normalized to a fitted Rmax: 0.117
CD94/NKG2C; CD94/NKG2C concentration 3.2 μM
  binding of peptide-HLA-E complex to CD94/NKG2C normalized to a fitted Rmax: 0.202
CD94/NKG2C; CD94/NKG2C concentration 6.4 μM
  binding of peptide-HLA-E complex to CD94/NKG2C normalized to a fitted Rmax: 0.317
CD94/NKG2C; CD94/NKG2C concentration 12.8 μM
  binding of peptide-HLA-E complex to CD94/NKG2C normalized to a fitted Rmax: 0.462
CD94/NKG2C; CD94/NKG2C concentration 25.6 μM
  binding of peptide-HLA-E complex to CD94/NKG2C normalized to a fitted Rmax: 0.613
CD94/NKG2C; CD94/NKG2C concentration 51.2 μM
  binding of peptide-HLA-E complex to CD94/NKG2C normalized to a fitted Rmax: 0.746
CD94/NKG2C; CD94/NKG2C concentration 102.4 μM
  binding of peptide-HLA-E complex to CD94/NKG2C normalized to a fitted Rmax: 0.904
CD94/NKG2C; CD94/NKG2C analyte concentration 0 μM
  Binding of peptide-HLA-E complexes to CD94/NKG2C normalized to a theoretical Rmax: 0.005
CD94/NKG2C; CD94/NKG2C analyte concentration 0.1 μM
  Binding of peptide-HLA-E complexes to CD94/NKG2C normalized to a theoretical Rmax: 0.012
CD94/NKG2C; CD94/NKG2C analyte concentration 0.2 μM
  Binding of peptide-HLA-E complexes to CD94/NKG2C normalized to a theoretical Rmax: 0.017
CD94/NKG2C; CD94/NKG2C analyte concentration 0.4 μM
  Binding of peptide-HLA-E complexes to CD94/NKG2C normalized to a theoretical Rmax: 0.030
CD94/NKG2C; CD94/NKG2C analyte concentration 0.8 μM
  Binding of peptide-HLA-E complexes to CD94/NKG2C normalized to a theoretical Rmax: 0.050
CD94/NKG2C; CD94/NKG2C analyte concentration 1.6 μM
  Binding of peptide-HLA-E complexes to CD94/NKG2C normalized to a theoretical Rmax: 0.086
CD94/NKG2C; CD94/NKG2C analyte concentration 3.2 μM
  Binding of peptide-HLA-E complexes to CD94/NKG2C normalized to a theoretical Rmax: 0.149
CD94/NKG2C; CD94/NKG2C analyte concentration 6.4 μM
  Binding of peptide-HLA-E complexes to CD94/NKG2C normalized to a theoretical Rmax: 0.234
CD94/NKG2C; CD94/NKG2C analyte concentration 12.8 μM
  Binding of peptide-HLA-E complexes to CD94/NKG2C normalized to a theoretical Rmax: 0.342
CD94/NKG2C; CD94/NKG2C analyte concentration 25.6 μM
  Binding of peptide-HLA-E complexes to CD94/NKG2C normalized to a theoretical Rmax: 0.454
CD94/NKG2C; CD94/NKG2C analyte concentration 51.2 μM
  Binding of peptide-HLA-E complexes to CD94/NKG2C normalized to a theoretical Rmax: 0.552
CD94/NKG2C; CD94/NKG2C analyte concentration 102.4 μM
  Binding of peptide-HLA-E complexes to CD94/NKG2C normalized to a theoretical Rmax: 0.669
CD94/NKG2A; CD94/NKG2A concentration 0 μM
  binding of peptide-HLA-E complex to CD94/NKG2A normalized to a fitted Rmax: 0.010
CD94/NKG2A; CD94/NKG2A concentration 0.1 μM
  binding of peptide-HLA-E complex to CD94/NKG2A normalized to a fitted Rmax: 0.024
CD94/NKG2A; CD94/NKG2A concentration 0.2 μM
  binding of peptide-HLA-E complex to CD94/NKG2A normalized to a fitted Rmax: 0.037
CD94/NKG2A; CD94/NKG2A concentration 0.4 μM
  binding of peptide-HLA-E complex to CD94/NKG2A normalized to a fitted Rmax: 0.066
CD94/NKG2A; CD94/NKG2A concentration 0.8 μM
  binding of peptide-HLA-E complex to CD94/NKG2A normalized to a fitted Rmax: 0.115
CD94/NKG2A; CD94/NKG2A concentration 1.6 μM
  binding of peptide-HLA-E complex to CD94/NKG2A normalized to a fitted Rmax: 0.191
CD94/NKG2A; CD94/NKG2A concentration 3.2 μM
  binding of peptide-HLA-E complex to CD94/NKG2A normalized to a fitted Rmax: 0.302
CD94/NKG2A; CD94/NKG2A concentration 6.4 μM
  binding of peptide-HLA-E complex to CD94/NKG2A normalized to a fitted Rmax: 0.432
CD94/NKG2A; CD94/NKG2A concentration 12.8 μM
  binding of peptide-HLA-E complex to CD94/NKG2A normalized to a fitted Rmax: 0.558
CD94/NKG2A; CD94/NKG2A concentration 25.6 μM
  binding of peptide-HLA-E complex to CD94/NKG2A normalized to a fitted Rmax: 0.685
CD94/NKG2A; CD94/NKG2A concentration 51.2 μM
  binding of peptide-HLA-E complex to CD94/NKG2A normalized to a fitted Rmax: 0.819
CD94/NKG2A; CD94/NKG2A concentration 102.4 μM
  binding of peptide-HLA-E complex to CD94/NKG2A normalized to a fitted Rmax: 0.961
CD94/NKG2A; CD94/NKG2A analyte concentration 0.000 μM
  Binding of peptide-HLA-E complexes to CD94/NKG2A normalized to a theoretical Rmax: 0.006
CD94/NKG2A; CD94/NKG2A analyte concentration 0.100 μM
  Binding of peptide-HLA-E complexes to CD94/NKG2A normalized to a theoretical Rmax: 0.015
CD94/NKG2A; CD94/NKG2A analyte concentration 0.200 μM
  Binding of peptide-HLA-E complexes to CD94/NKG2A normalized to a theoretical Rmax: 0.023
CD94/NKG2A; CD94/NKG2A analyte concentration 0.400 μM
  Binding of peptide-HLA-E complexes to CD94/NKG2A normalized to a theoretical Rmax: 0.042
CD94/NKG2A; CD94/NKG2A analyte concentration 0.800 μM
  Binding of peptide-HLA-E complexes to CD94/NKG2A normalized to a theoretical Rmax: 0.074
CD94/NKG2A; CD94/NKG2A analyte concentration 1.600 μM
  Binding of peptide-HLA-E complexes to CD94/NKG2A normalized to a theoretical Rmax: 0.122
CD94/NKG2A; CD94/NKG2A analyte concentration 3.200 μM
  Binding of peptide-HLA-E complexes to CD94/NKG2A normalized to a theoretical Rmax: 0.193
CD94/NKG2A; CD94/NKG2A analyte concentration 6.400 μM
  Binding of peptide-HLA-E complexes to CD94/NKG2A normalized to a theoretical Rmax: 0.277
CD94/NKG2A; CD94/NKG2A analyte concentration 12.800 μM
  Binding of peptide-HLA-E complexes to CD94/NKG2A normalized to a theoretical Rmax: 0.357
CD94/NKG2A; CD94/NKG2A analyte concentration 25.600 μM
  Binding of peptide-HLA-E complexes to CD94/NKG2A normalized to a theoretical Rmax: 0.439
CD94/NKG2A; CD94/NKG2A analyte concentration 51.200 μM
  Binding of peptide-HLA-E complexes to CD94/NKG2A normalized to a theoretical Rmax: 0.524
CD94/NKG2A; CD94/NKG2A analyte concentration 102.400 μM
  Binding of peptide-HLA-E complexes to CD94/NKG2A normalized to a theoretical Rmax: 0.615
